In ChEMBL document CHEMBL1649553, “Characterization of ermA in macrolide-susceptible strains of methicillin-resistant Staphylococcus aureus” (2009) one finds MIC data, which are given here for two compounds.

In this assay the test system is Staphylococcus aureus. As to the kind of experiment: Antibacterial activity against methicillin-resistant Staphylococcus aureus. It counts as functional.

≈ marks a conversion by molar mass, not a printed value.

For the compound `CC[C@H]1OC(=O)[C@H](C)[C@@H](O[C@H]2C[C@@](C)(OC)[C@@H](O)[C@H](C)O2)[C@H](C)[C@@H](O[C@@H]2O[C@H](C)C[C@H](N(C)C)[C@H]2O)[C@](C)(O)C[C@@H](C)C(=O)[C@H](C)[C@@H](O)[C@]1(C)O` [ERYTHROMYCIN], the minimum inhibitory concentration (MIC) is 0.25 µg/mL (≈ 0.341 µM).
Then `CCC[C@@H]1C[C@@H](C(=O)N[C@@H]([C@H]2O[C@H](SC)[C@H](O)[C@@H](O)[C@H]2O)[C@H](C)Cl)N(C)C1` [CLINDAMYCIN], with 0.5 µg/mL (≈ 1.18 µM).
